Source: patent publication US20250326753A1, “DUAL CXCR4-BTK INHIBITORS” (X4 Pharmaceuticals, Inc., priority 2022, published 2025)
Like-named read-outs stand apart in the source and are kept apart here.

Legend:
[1] = target: T1, INSR (Homo sapiens, UniProt P06213); assay: PanQinase kinase panel: INSR; assay type: biochemical; details: read-out: INHIBITORY EFFECT @ 1 uM: INSR
T1 construct: purchased Reaction Biology Europe GmbH
Protocol: (§1) Screening procedures were performed in accordance with the company's on-line protocol [accessed on-line Mar.
(§2) For each kinase, the median value of the cpm of three wells was defined as “low control” (n=3). This value reflects unspecific binding of radioactivity to the plate in the absence of a protein kinase but in the presence of the substrate. Additionally, for each kinase the median value of the cpm of three other wells was taken as the “high control,” i.e. full activity in the absence of any inhibitor (n=3). The difference between high and low control of each enzyme was taken as 100% activity.
(§3) As part of the data evaluation the low control of each kinase was subtracted from the high control value as well as from their corresponding “compound values”. The residual activity (in %) for each compound well was calculated by using the following formula: Res. Activity (%)=100×[(signal of compound−low control)/(high control−low control)].

[2] = target: T2, CK1epsilon (Homo sapiens, UniProt P49674); assay: PanQinase kinase panel: CK1epsilon; assay type: biochemical; details: read-out: INHIBITORY EFFECT @ 1 uM: CK1epsilon
T2 construct: purchased Reaction Biology Europe GmbH
T2 sequence (P49674 whole entry): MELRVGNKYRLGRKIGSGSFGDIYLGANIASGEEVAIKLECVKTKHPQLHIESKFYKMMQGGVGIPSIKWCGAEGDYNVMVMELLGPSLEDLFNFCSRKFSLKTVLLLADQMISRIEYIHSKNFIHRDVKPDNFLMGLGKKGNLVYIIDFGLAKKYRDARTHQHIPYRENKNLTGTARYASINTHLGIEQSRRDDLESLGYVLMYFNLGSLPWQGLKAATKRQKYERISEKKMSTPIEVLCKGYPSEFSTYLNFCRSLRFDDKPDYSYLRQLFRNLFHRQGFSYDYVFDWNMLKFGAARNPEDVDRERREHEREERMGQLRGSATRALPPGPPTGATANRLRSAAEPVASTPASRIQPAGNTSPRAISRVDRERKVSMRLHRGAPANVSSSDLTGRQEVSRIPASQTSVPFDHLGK
Protocol: as §1, §2, §3

[3] = target: T3, SRMS (Homo sapiens, UniProt Q9H3Y6); assay: PanQinase kinase panel: SRMS; assay type: biochemical; details: read-out: INHIBITORY EFFECT @ 1 uM: SRMS
T3 construct: purchased Reaction Biology Europe GmbH
T3 sequence (Q9H3Y6 whole entry): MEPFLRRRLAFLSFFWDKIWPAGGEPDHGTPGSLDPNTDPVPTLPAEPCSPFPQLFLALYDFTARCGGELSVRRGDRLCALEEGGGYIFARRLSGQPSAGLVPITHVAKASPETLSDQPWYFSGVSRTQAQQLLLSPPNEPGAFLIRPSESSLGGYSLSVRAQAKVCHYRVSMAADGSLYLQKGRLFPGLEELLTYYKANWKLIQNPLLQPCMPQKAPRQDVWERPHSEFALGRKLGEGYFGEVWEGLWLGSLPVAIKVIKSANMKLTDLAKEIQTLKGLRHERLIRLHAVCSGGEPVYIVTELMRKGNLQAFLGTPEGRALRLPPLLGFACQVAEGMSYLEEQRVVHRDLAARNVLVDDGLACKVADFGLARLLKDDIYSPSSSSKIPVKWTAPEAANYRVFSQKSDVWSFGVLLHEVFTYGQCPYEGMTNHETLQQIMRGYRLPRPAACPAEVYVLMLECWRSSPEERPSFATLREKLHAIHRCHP
Protocol: as §1, §2, §3

[4] = target: T4, TIE2 (Homo sapiens, UniProt Q02763); assay: PanQinase kinase panel: TIE2; assay type: biochemical; details: read-out: INHIBITORY EFFECT @ 1 uM: TIE2
T4 construct: purchased Reaction Biology Europe GmbH
T4 sequence (Q02763 23-1124): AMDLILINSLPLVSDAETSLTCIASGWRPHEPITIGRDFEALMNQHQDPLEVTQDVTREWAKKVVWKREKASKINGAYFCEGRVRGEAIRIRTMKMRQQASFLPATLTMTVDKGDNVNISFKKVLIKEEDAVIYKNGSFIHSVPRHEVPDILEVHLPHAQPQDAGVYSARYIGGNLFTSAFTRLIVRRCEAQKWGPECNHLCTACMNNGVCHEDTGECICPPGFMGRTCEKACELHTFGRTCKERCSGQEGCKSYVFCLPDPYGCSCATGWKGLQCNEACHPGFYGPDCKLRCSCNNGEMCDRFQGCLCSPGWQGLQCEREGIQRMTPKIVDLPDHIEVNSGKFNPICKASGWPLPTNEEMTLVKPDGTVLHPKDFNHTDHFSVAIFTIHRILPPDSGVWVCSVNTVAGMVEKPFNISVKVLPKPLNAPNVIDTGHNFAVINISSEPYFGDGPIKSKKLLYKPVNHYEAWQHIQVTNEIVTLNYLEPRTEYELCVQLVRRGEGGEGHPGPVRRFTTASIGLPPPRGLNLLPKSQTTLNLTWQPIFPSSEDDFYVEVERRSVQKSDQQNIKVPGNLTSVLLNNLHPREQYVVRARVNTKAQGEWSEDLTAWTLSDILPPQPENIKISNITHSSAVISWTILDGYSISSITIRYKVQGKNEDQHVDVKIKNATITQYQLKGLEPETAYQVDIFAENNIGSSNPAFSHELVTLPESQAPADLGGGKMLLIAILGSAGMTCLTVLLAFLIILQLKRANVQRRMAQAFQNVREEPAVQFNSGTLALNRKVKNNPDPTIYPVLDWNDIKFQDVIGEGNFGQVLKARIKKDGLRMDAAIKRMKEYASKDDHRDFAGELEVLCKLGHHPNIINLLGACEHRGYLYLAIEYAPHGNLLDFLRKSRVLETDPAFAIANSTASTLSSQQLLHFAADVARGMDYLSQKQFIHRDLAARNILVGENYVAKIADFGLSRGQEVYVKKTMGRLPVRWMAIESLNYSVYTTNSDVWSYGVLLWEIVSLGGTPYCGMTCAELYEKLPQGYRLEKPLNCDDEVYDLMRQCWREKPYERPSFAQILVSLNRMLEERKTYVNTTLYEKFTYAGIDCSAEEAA
Protocol: as §1, §2, §3

[5] = target: T5, PKN3 (Homo sapiens, UniProt Q6P5Z2); assay: PanQinase kinase panel: PKN3; assay type: biochemical; details: read-out: INHIBITORY EFFECT @ 1 uM: PKN3
T5 construct: purchased Reaction Biology Europe GmbH
Protocol: as §1, §2, §3

[6] = target: T6, LIMK1 (Homo sapiens, UniProt P53667); assay: PanQinase kinase panel: LIMK1; assay type: biochemical
T6 construct: purchased Reaction Biology Europe GmbH
T6 sequence (P53667 whole entry): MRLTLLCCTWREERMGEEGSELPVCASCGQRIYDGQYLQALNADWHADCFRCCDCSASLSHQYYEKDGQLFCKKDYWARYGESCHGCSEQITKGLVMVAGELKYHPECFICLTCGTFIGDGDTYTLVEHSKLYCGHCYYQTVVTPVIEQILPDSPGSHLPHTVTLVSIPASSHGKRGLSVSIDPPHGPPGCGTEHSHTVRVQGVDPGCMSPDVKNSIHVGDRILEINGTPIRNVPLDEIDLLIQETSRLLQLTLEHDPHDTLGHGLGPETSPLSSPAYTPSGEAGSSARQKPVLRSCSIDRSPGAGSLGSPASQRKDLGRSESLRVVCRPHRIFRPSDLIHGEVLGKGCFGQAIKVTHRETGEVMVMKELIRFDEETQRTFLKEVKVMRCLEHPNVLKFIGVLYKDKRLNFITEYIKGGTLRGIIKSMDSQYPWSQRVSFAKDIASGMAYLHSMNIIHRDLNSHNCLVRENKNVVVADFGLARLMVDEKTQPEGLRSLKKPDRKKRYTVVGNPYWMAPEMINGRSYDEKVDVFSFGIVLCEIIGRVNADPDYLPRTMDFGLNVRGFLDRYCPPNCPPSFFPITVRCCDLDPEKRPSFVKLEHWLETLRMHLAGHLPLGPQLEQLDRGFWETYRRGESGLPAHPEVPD
Protocol: as §1, §2, §3

[7] = target: T7, MAP4K5 (Homo sapiens, UniProt Q9Y4K4); assay: PanQinase kinase panel: MAP4K5; assay type: biochemical; details: read-out: INHIBITORY EFFECT @ 1 uM: MAP4K5
T7 construct: purchased Reaction Biology Europe GmbH
Protocol: as §1, §2, §3

[8] = target: T8, MEK1 (Homo sapiens, UniProt Q02750); assay: PanQinase kinase panel: MEK1; assay type: biochemical; details: read-out: INHIBITORY EFFECT @ 1 uM: MEK1
T8 construct: purchased Reaction Biology Europe GmbH
T8 sequence (Q02750 whole entry): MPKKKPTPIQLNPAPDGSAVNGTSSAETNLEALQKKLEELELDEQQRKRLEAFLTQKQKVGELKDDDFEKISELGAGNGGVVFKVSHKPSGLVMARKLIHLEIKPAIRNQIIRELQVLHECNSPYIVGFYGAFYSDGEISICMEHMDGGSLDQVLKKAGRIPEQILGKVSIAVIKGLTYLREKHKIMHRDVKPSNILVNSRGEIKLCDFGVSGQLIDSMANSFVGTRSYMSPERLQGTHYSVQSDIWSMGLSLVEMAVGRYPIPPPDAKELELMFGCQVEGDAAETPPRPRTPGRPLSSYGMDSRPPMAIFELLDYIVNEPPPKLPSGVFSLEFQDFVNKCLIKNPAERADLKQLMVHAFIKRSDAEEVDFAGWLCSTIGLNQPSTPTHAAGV
Protocol: as §1, §2, §3

[9] = target: T9, BTK (Bruton tyrosine kinase) (Homo sapiens, UniProt Q06187); assay: BTK screening assay (33PanQinase Activity Assay, radiometric); assay type: biochemical; details: Inhibition of BTK, radiometric 33PanQinase Activity Assay, 3 μM ATP, 10 concentrations in singlicate, top 10 μM; read-out: 33PanQinase ® Radiometric IC50
T9 construct: GST or His (the text leaves open which); purchased Reaction Biology Europe GmbH Lot 012,11; host or cells: Sf9 insect cells or E. coli (not resolved)
T9 sequence (Q06187 whole entry): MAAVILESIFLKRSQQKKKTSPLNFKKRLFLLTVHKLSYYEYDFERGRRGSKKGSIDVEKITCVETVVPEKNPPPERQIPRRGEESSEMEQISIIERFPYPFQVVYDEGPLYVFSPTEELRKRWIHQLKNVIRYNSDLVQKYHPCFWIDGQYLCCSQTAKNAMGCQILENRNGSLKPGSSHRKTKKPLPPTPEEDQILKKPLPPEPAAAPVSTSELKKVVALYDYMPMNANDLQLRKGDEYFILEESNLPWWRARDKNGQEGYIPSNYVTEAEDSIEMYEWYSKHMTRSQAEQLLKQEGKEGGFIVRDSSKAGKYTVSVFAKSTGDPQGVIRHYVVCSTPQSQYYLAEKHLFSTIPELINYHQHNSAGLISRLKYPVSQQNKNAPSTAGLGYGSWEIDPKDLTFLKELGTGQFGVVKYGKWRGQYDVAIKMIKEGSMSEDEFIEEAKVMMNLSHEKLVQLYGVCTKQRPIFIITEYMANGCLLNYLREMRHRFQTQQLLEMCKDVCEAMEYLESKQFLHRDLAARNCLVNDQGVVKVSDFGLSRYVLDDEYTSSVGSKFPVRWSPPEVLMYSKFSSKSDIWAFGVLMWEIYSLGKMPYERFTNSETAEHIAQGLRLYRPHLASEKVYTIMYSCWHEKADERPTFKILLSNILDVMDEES

[10] = tested on: T98G; assay: Glioblastoma multiforme cell proliferation assay (CellTiter Glo), T98G; assay type: cell-based; details: Homo sapiens; for Emax: read-out: GBM-T-98G Cell Proliferation Emax %
Protocol: Inhibition of glioblastoma multiforme cell proliferation by compounds of the present invention was evaluated in U-87 MG (ATCC; Cat. No. HTB-14; Lot. No. 5018014) and T98G (ATCC; Cat. No. CRL-1690; Lot. No. 58267513) cell lines. These are adherent cell lines isolated from glioblastoma multiforme/malignant glioma, which express both CXCR4 and BTK (see Zhou et al. 2002 and Yue et al. 2017).
Cell viability was analyzed with the CellTiter Glo Cell assay kit ([…], Cat. No. G7573, Lot. No. 0000474103), according to the manufacturer's instruction.
U-87 MG and T98G cells were seeded onto 384-well opaque-walled clear bottom plates (Corning, Cat. No. 3765, Lot. No. 34319047) in EMEM (Invitrogen, Cat. No. 11095-080; Lot. No. 2276656) supplemented with 10% FBS (Invitrogen, Cat. No. 10099-141C, Lot. No. 2145169CP), at a seeding density of 1000 or 1200 cells per well, respectively, and then incubated in 5% CO2 at 37° C. overnight.
Compounds were prepared as stock solutions of 30 mM in DMSO (Sigma, Cat. No. 276855-1L. Lot. No. SHBL5610). Compounds were added to the cells, with 10 dose points in duplicates, in 3-fold dilution from a top concentration of 30 μM (final DMSO concentration […]), and incubated in 5% CO2 at 37° C. for 96 hr.
The 384-well plates were equilibrated at room temperature for approximately 30 min. 25 μl of CellTiter-Glo® Reagent was added to each well and mixed for 10 min on an orbital shaker to induce cell lysis. The 384-well plates were incubated at room temperature for 10 min to stabilize luminescent signal. Luminescence was detected on a PerkinElmer EnVision Multimode Plate Reader (measurement time 0.1s) as relative luminescence units (RLU).

[11] = read-out: INHIBITORY EFFECT @ 1 uM: LIMK1
[12] = Table 6A, cell viability, 96 hr, read-out: T98G IC50

T1 sequence (P06213 28-1382): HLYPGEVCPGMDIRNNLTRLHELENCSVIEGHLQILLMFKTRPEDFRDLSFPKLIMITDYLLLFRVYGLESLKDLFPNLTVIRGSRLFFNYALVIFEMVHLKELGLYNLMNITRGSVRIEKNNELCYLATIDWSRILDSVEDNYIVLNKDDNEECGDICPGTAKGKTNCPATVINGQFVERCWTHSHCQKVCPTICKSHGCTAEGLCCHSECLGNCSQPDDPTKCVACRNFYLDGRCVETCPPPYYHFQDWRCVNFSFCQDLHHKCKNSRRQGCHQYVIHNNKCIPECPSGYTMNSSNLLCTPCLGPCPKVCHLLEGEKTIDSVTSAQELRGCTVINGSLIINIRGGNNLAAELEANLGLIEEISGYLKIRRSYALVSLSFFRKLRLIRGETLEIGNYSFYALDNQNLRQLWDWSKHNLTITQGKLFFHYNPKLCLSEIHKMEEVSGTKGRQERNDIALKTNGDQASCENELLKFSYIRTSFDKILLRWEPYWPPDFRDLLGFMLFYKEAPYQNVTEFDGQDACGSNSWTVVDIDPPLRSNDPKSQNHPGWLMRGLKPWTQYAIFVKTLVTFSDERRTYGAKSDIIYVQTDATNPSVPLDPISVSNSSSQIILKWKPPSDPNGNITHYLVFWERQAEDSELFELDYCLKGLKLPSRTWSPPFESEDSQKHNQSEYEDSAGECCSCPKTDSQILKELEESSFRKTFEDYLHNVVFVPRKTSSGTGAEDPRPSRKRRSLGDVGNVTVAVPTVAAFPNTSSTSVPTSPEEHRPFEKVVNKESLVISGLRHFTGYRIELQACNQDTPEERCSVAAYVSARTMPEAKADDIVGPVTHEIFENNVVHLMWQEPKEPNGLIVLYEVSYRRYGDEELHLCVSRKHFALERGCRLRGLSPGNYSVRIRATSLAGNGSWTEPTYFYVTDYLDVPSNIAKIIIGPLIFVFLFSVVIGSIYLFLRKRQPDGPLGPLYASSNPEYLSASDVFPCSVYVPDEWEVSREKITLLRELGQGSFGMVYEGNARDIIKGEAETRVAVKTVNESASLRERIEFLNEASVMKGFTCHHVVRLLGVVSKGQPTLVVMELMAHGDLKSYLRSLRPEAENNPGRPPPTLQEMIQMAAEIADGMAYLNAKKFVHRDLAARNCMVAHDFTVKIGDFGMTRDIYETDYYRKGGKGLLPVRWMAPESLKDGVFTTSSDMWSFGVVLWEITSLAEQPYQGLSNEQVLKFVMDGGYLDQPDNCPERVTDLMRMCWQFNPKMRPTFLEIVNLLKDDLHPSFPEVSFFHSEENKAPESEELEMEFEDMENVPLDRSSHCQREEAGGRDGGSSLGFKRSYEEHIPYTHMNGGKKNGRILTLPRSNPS

SMILES | inhibition at 1 µM [1] | inhibition at 1 µM [2] | inhibition at 1 µM [3] | inhibition at 1 µM [4] | inhibition at 1 µM [5] | inhibition at 1 µM [6, 11] | inhibition at 1 µM [7] | inhibition at 1 µM [8] | IC50 [9] | inhibition at 1 µM ([6]; at 1 μM, read-out: inhibition of LIMK1) | Emax ([10]; Table 6B) | IC50 ([10]; read-out: GBM-T-98G Cell Proliferation IC50 uM) | IC50 [10, 12] | IC50 ([10]; Table 6B, read-out: GBM-T-98G Cell Proliferation IC50)
COc1ccc(F)cc1C(=O)NCc1ccc(-c2nn([C@@H](C)C(F)(F)F)c(N)c2C(N)=O)cc1 [LOXO-305, pirtobrutinib] | < 50% | < 50% | < 50% | < 50% | < 50% | < 50% | < 50% | < 50% |  |  |  |  |  | 
C=CC(=O)N1CCC([C@@H]2CCNc3c(C(N)=O)c(-c4ccc(Oc5ccccc5)cc4)nn32)CC1 [Zanubrutinib, (7S)-2-(4-phenoxyphenyl)-7-(1-prop-2-enoylpiperidin-4-yl)-4,5,6,7-tetrahydropyrazolo[1,5-a]pyrimidine-3-carboxamide] | < 50% | < 50% | < 50% | < 50% | < 50% | < 50% | < 50% | < 50% |  |  |  |  |  | 
O=C(c1ccc(Oc2ccccc2)cc1Cl)c1c[nH]c2ncnc(N[C@@H]3CC[C@@H](CO)OC3)c12 [ARQ-531, (2-chloro-4-phenoxyphenyl) (4-(((3R,6S)-6-(hydroxymethyl)tetrahydro-2H-pyran-3-yl)amino)-7H-pyrrolo[2,3-d]pyrimidin-5-yl) methanone] | 70 to 89% | 50 to 69% | 90 to 100% | < 50% | 50 to 69% |  | 50 to 69% | 50 to 69% |  |  |  |  |  | 
Cc1cccnc1[C@H]1CCC[C@@H](c2ncccc2C)N1CCN1CCN(C(=O)c2ccc(-c3cc4c(-c5cccc(NC(=O)c6ccccc6)c5C)ncnc4[nH]3)cc2)CC1 [Compound I-10, N-(3-(6-(4-(4-(2-((2R,6S)-2,6-bis(3-methylpyridin-2-yl)piperidin-1-yl)ethyl)piperazine-1-carbonyl)phenyl)-7H-pyrrolo[2,3-d]pyrimidin-4-yl)-2-methylphenyl)benzamide] | < 50% | < 50% | < 50% | < 50% | 50 to 69% | 70 to 89% | < 50% | < 50% | 1 to 100 nM | 50 to 89% | 93% | 2.66 µM |  | 
Cc1cccnc1[C@H]1CCC[C@@H](c2ncccc2C)N1CCCCNC(=O)OC[C@@H]1CC[C@@H](Nc2ncnc3[nH]cc(C(=O)c4ccc(Oc5ccccc5)cc4Cl)c23)CO1 [Compound I-18] |  |  |  |  |  |  |  |  | 1 to 100 nM |  |  |  | 2.4 µM | 
Cc1cc(-c2ccnc(Nc3cnn(CCN4[C@@H](c5ncccc5C)CCC[C@H]4c4ncccc4C)c3)n2)ccc1CNC(=O)N1CC(OC(C)C)C1 [Compound I-11] |  |  |  |  |  |  |  |  | 1 to 100 nM |  | 98% |  |  | 3.28 µM
Cc1cccnc1[C@H]1CCC[C@@H](c2ncccc2C)N1CCCCNC(=O)[C@@H]1CC[C@@H](Nc2ncnc3[nH]cc(C(=O)c4ccc(Oc5ccccc5)cc4Cl)c23)CO1 [Compound I-16] |  |  |  |  |  |  |  |  | 1 to 100 nM |  |  |  | 2.2 µM | 
